Results on 20 compounds are retold here after patent publication US7994172B2, “[1H-pyrazolo[3, 4-D]pyrimidin-4-yl]-piperidine or -piperazine compounds as serine-theoronine kinase modulators (P70s6k, Atk1 and Atk2) for the treatment of immunological, inflammatory and proliferative diseases” (Exelixis, Inc., priority 2004, dated 2011).

Holding throughout (assay type): biochemical
The target in assay [1] is T1, human Akt1 kinase (kinase domain residues R144-A480, activated with PDK1) (Homo sapiens, UniProt P31749).
T1 construct: made in house
Put plainly: Akt1 kinase assay, Luciferase-Coupled Chemiluminescent Kinase assay (LCCA). The settings on record: 1 μM ATP, 1.3 nM Akt1; read-out: Akt-1 inhibition IC50. As to the method: (§1) Kinase activity and compound inhibition are investigated using one or more of the three assay formats described below. The ATP concentrations for each assay are selected to be close to the Michaelis-Menten constant (KM) for each individual kinase. Dose-response experiments are performed at 10 different inhibitor concentrations in a 384-well plate format. The data are fitted to four-parameter equation (2) below; where Y is the observed signal, X is the inhibitor concentration, Min is the background signal in the absence of enzyme (0% enzyme activity), Max is the signal in the absence of inhibitor (100% enzyme activity), IC50 is the inhibitor concentration at 50% enzyme inhibition and H represents the empirical Hill's slope to measure the cooperativity. Typically H is close to unity. Y=Min+(Max−Min)/(1+(X/IC50)^H) Equation (2) p70S6 Kinase Assay
Biochemical activity of Akt1 kinase was assessed using a Luciferase-Coupled Chemiluminescent Kinase assay (LCCA) format. Kinase activity was measured as the percent ATP remaining following the kinase reaction. Remaining ATP was detected by luciferase-luciferin-coupled chemiluminescence. Specifically, the reaction was initiated by mixing test compounds, 1 μM ATP, 5 μM crosstide peptide and 1.3 nM Akt1 (baculovirus expressed human Akt1 kinase domain residues R144-A480, activated with PDK1) in a 20 uL assay buffer (20 mM Tris-HCL pH 7.5, 10 mM MgCl2, 0.01% Triton X-100, 1 mM DTT, 3 mM MnCl2). The mixture is incubated at ambient temperature for 3 hours after which 20 μL luciferase-luciferin mix is added and the chemiluminescent signal read using a Wallac Victor2 reader. The luciferase-luciferin mix consists of 50 mM HEPES, pH 7.8, 8.5 μg/mL oxalic acid (pH 7.8), 5 (or 50) mM DTT, 0.4% Triton X-100, 0.25 mg/mL coenzyme A, 63 uM AMP, 28 μg/mL luciferin and 40,000 units/mL luciferase.

For assay [2], the target named is T2, human Akt2 kinase (kinase domain residues K146-R480) (Homo sapiens, UniProt P31751).
T2 construct: human Akt2 kinase domain residues K146-R480; made in house
Briefly: Akt2 kinase assay, Luciferase-Coupled Chemiluminescent Kinase assay (LCCA). As to conditions: 2 μM ATP, 10 nM Akt2; read-out: Akt-2 inhibition IC50. As to the method: as §1
Biochemical activity of Akt2 kinase was assessed using a Luciferase-Coupled Chemiluminescent Kinase assay (LCCA) format. Kinase activity was measured as the percent ATP remaining following the kinase reaction. Remaining ATP was detected by luciferase-luciferin-coupled chemiluminescence. Specifically, the reaction was initiated by mixing test compounds, 2 μM ATP, 5 μM crosstide peptide and 10 nM Akt2 (baculovirus expressed human Akt2 kinase domain residues K146-R480) in a 20 uL assay buffer (20 mM Tris-HCL pH 7.5, 10 mM MgCl2, 0.03% Triton X-100, 1 mM DTT, 3 mM MnCl2). The mixture is incubated at ambient temperature for 2 hours after which 20 μL luciferase-luciferin mix is added and the chemiluminescent signal read using a Wallac Victor2 reader. The luciferase-luciferin mix consists of 50 mM HEPES, pH 7.8, 8.5 μg/mL oxalic acid (pH 7.8), 5 (or 50) mM DTT, 0.4% Triton X-100, 0.25 mg/mL coenzyme A, 63 uM AMP, 28 μg/mL luciferin and 40,000 units/mL luciferase.

Assay [3] has as its target T3, human p70S6 kinase (p70S6K, kinase domain residues 1-421, T412E mutation) (Homo sapiens, UniProt P23443, T412E).
T3 construct: human p70S6 kinase domainresidues 1-421, containing a T412E mutation; made in house
Briefly: p70S6 kinase assay, Luciferase-Coupled Chemiluminescent Kinase assay (LCCA). The settings on record: 5 μM ATP, 12 nM p70S6K; read-out: p70S6K inhibition IC50. As to the method: as §1
Biochemical activity of p70S6 kinase was assessed using a Luciferase-Coupled Chemiluminescent Kinase assay (LCCA) format. Kinase activity was measured as the percent ATP remaining following the kinase reaction. Remaining ATP was detected by luciferase-luciferin-coupled chemiluminescence. Specifically, the reaction was initiated by mixing test compounds, 5 μM ATP, 5 μM RRRLSSLRA peptide and 12 nM p70S6K (baculovirus expressed human p70S6 kinase domainresidues 1-421, containing a T412E mutation) in a 20 uL assay buffer (20 mM Tris-HCL pH 7.5, 10 mM MgCl2, 0.02% Triton X-100, 100 mM DTT, 2 mM MnCl2). The mixture is incubated at ambient temperature for 2 hours after which 20 μL luciferase-luciferin mix is added and the chemiluminescent signal read using a Wallac Victor^2 reader. The luciferase-luciferin mix consists of 50 mM HEPES, pH 7.8, 8.5 μg/mL oxalic acid (pH 7.8), 5 (or 50) mM DTT, 0.4% Triton X-100, 0.25 mg/mL coenzyme A, 63 uM AMP, 28 μg/mL luciferin and 40,000 units/mL luciferase.

T1 sequence (P31749 144-480): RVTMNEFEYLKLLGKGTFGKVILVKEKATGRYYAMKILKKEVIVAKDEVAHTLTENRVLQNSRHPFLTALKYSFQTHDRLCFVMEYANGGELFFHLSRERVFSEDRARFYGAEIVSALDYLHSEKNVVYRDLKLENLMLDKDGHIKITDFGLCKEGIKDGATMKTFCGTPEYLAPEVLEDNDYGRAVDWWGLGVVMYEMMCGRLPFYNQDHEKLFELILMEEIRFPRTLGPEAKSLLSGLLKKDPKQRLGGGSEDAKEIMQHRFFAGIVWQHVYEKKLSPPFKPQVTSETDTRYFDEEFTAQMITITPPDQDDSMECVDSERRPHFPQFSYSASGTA
T3 sequence (P23443 1-421 T412E): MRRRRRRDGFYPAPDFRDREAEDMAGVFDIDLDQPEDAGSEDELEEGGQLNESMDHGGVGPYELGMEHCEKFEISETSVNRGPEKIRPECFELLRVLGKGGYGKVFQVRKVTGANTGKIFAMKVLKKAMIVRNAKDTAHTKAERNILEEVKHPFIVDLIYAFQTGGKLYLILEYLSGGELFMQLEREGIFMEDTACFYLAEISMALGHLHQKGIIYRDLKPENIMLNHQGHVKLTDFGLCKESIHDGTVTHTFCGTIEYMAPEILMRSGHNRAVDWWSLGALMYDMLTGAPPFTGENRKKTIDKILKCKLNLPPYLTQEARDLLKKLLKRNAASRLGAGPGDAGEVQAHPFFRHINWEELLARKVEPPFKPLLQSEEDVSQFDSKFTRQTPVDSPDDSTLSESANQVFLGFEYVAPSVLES
T2 sequence (P31751 146-480): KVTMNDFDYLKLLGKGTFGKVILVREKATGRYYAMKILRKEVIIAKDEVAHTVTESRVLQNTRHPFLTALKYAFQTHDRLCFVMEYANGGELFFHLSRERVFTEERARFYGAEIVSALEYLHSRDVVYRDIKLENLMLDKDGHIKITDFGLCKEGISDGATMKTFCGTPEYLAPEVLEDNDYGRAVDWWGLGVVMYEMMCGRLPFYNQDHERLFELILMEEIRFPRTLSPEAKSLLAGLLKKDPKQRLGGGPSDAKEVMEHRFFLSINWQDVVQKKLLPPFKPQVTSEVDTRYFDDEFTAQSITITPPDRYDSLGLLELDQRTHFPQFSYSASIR

Take `Brc1n[nH]c2ncnc(N3CCN(Cc4ccc(OCc5ccccc5)cc4)CC3)c12` [Entry 79, 3-bromo-4-[4-({4-[(phenylmethyl)oxy]phenyl}methyl)piperazin-1-yl]-1H-pyrazolo[3,4-d]pyrimidine]: the IC50 in assay [1], in assay [2] and in assay [3] was > 2000 nM throughout.
As to `FC(F)(F)c1ccc(CN2CCN(c3ncnc4[nH]nc(Br)c34)CC2)cc1` [Entry 11, 3-bromo-4-(4-{[4-(trifluoromethyl)phenyl]methyl}piperazin-1-yl)-1H-pyrazolo[3,4-d]pyrimidine], the results for the IC50 in assay [1], in assay [2] and in assay [3] were 500 to 2000 nM, > 2000 nM and < 50 nM, respectively.
Take `O=C(CN1CCN(c2ncnc3[nH]nc(Br)c23)CC1)N1CCOCC1` [Entry 75, 3-bromo-4-[4-(2-morpholin-4-yl-2-oxoethyl)piperazin-1-yl]-1H-pyrazolo[3,4-d]pyrimidine]: the IC50 in assay [1], in assay [2] and in assay [3] was > 2000 nM each time.
For the compound `CCC(C)N1CCN(c2ncnc3[nH]nc(Br)c23)CC1` (stereo not shown) [Entry 72, 3-bromo-4-[4-(1-methylpropyl)piperazin-1-yl]-1H-pyrazolo[3,4-d]pyrimidine], the figures for the IC50 in assay [1], in assay [2] and in assay [3] were > 2000 nM, > 2000 nM and 500 to 2000 nM, respectively.
Regarding `Clc1ccc(CN2CCN(c3ncnc4[nH]nc(Br)c34)CC2)c(Cl)c1` [Entry 47, 3-bromo-4-{4-[(2,4-dichlorophenyl)methyl]piperazin-1-yl}-1H-pyrazolo[3,4-d]pyrimidine], the results for the IC50 in assay [1], in assay [2] and in assay [3] were 500 to 2000 nM, > 2000 nM and < 50 nM, respectively.
On to `Brc1n[nH]c2ncnc(N3CCN(C4CCCCc5ccccc54)CC3)c12` (stereo not shown) [Entry 78, 3-bromo-4-[4-(6,7,8,9-tetrahydro-5H-benzocyclohepten-5-yl)piperazin-1-yl]-1H-pyrazolo[3,4-d]pyrimidine], for which the half-maximal inhibitory concentration (IC50) in assay [1], in assay [2] and in assay [3] was > 2000 nM throughout.
As to `Brc1n[nH]c2ncnc(N3CCN(CCCN4CCCC4)CC3)c12` [Entry 69, 3-bromo-4-[4-(3-pyrrolidin-1-ylpropyl)piperazin-1-yl]-1H-pyrazolo[3,4-d]pyrimidine], the results for the IC50 in assay [1], in assay [2] and in assay [3] were > 2000 nM, > 2000 nM and 500 to 2000 nM, respectively.
Consider `COc1ccc(CN2CCN(c3ncnc4[nH]nc(Br)c34)CC2)cc1` [Entry 32, 3-bromo-4-(4-{[4-(methyloxy)phenyl]methyl}piperazin-1-yl)-1H-pyrazolo[3,4-d]pyrimidine], for which the figures for the half-maximal inhibitory concentration (IC50) in assay [1], in assay [2] and in assay [3] were 500 to 2000 nM, > 2000 nM and < 50 nM, respectively.
As for `Brc1n[nH]c2ncnc(N3CCN(Cc4ccc5c(c4)OCO5)CC3)c12` [Entry 37, 4-[4-(1,3-benzodioxol-5-ylmethyl)piperazin-1-yl]-3-bromo-1H-pyrazolo[3,4-d]pyrimidine], the IC50 (as a rule, the concentration that gives 50% inhibition) was 500 to 2000 nM in assay [1], > 2000 nM in assay [2] and < 50 nM in assay [3].
With `Brc1ccc(CN2CCN(c3ncnc4[nH]nc(Br)c34)CC2)cc1` [Entry 4, 3-bromo-4-{4-[(4-bromophenyl)methyl]piperazin-1-yl}-1H-pyrazolo[3,4-d]pyrimidine], the IC50 in assay [1] is 50 to 500 nM; in assay [3], < 50 nM.
Taken in the same sequence, the figures for `O=[N+]([O-])c1cc(CN2CCN(c3ncnc4[nH]nc(Br)c34)CC2)ccc1Oc1ccc(F)cc1` [Entry 65, 3-bromo-4-[4-({4-[(4-fluorophenyl)oxy]-3-nitrophenyl}methyl)piperazin-1-yl]-1H-pyrazolo[3,4-d]pyrimidine] were > 2000 nM and 500 to 2000 nM.
On to `CCN(CC)CCC(=O)N(c1ccc(Cl)cc1)C1CCN(c2ncnc3[nH]nc(Br)c23)CC1` [Entry 24, N-[1-(3-bromo-1H-pyrazolo[3,4-d]pyrimidin-4-yl)piperidin-4-yl]-N-(4-chlorophenyl)-N~3~,N~3~-diethyl-beta-alaninamide], for which the 50% inhibitory concentration (IC50) in assay [1] and in assay [3] was < 50 nM throughout.
In the case of `CN(C)CCO[C@@H](c1ccc(Cl)c(F)c1)C1CCN(c2ncnc3[nH]nc(Br)c23)CC1` [Entry 92, 2-{[(R)-[1-(3-bromo-1H-pyrazolo[3,4-d]pyrimidin-4-yl)piperidin-4-yl](4-chloro-3-fluorophenyl)methyl]oxy}-N,N-dimethylethanamine], the IC50 in assay [1] and in assay [3] was < 50 nM each time.
Take `CN(C)CCNC(=O)N(c1ccc(Br)c(F)c1)C1CCN(c2ncnc3[nH]nc(Br)c23)CC1` [Entry 87, N-(4-bromo-3-fluorophenyl)-N-[1-(3-bromo-1H-pyrazolo[3,4-d]pyrimidin-4-yl)piperidin-4-yl]-N′-[2-(dimethylamino)ethyl]urea]: the IC50 in assay [1] and in assay [3] was < 50 nM each time.
In the case of `COC(=O)c1ccc(CN2CCN(c3ncnc4[nH]nc(Br)c34)CC2)cc1` [Entry 42, methyl 4-{[4-(3-bromo-1H-pyrazolo[3,4-d]pyrimidin-4-yl)piperazin-1-yl]methyl}benzoate], the IC50 in assay [1] is > 2000 nM; in assay [3] it was < 50 nM.
Regarding `CN(C)c1ccc(CN(C)C(c2ccc(F)cc2)C2CCN(c3ncnc4[nH]nc(Br)c34)CC2)cc1` (stereo not shown) [Entry 98, 4-{[{[1-(3-bromo-1H-pyrazolo[3,4-d]pyrimidin-4-yl)piperidin-4-yl](4-fluorophenyl)methyl}(methyl)amino]methyl}-N,N-dimethylaniline], the IC50 is 50 to 500 nM in assay [1] and < 50 nM in assay [3].
As to `Clc1ccc(OC2CCN(c3ncnc4[nH]nc(Br)c34)CC2)c(NCCN2CCCC2)c1` [Entry 103, 2-{[1-(3-bromo-1H-pyrazolo[3,4-d]pyrimidin-4-yl)piperidin-4-yl]oxy}-5-chloro-N-(2-pyrrolidin-1-ylethyl)aniline], the half-inhibitory concentration (IC50) in assay [1] and in assay [3] was 50 to 500 nM in each case.
As for `CN(C)CCCOC(c1ccc(Cl)cc1)C1CCN(c2ncnc3[nH]nc(Br)c23)CC1` (stereo not shown) [Entry 3, 3-{[[1-(3-bromo-1H-pyrazolo[3,4-d]pyrimidin-4-yl)piperidin-4-yl](4-chlorophenyl)methyl]oxy}-N,N-dimethylpropan-1-amine], the IC50 in assay [1] and in assay [3] was < 50 nM throughout.
In the case of `O=C1CN(c2ncnc3[nH]nc(Br)c23)CCN1Cc1ccc(Cl)cc1` [Entry 8, 4-(3-bromo-1H-pyrazolo[3,4-d]pyrimidin-4-yl)-1-[(4-chlorophenyl)methyl]piperazin-2-one], the IC50 in assay [1] was 50 to 500 nM; in assay [3], < 50 nM.
In the case of `CN(C)CCNC(=O)NC(c1ccc(Cl)cc1)C1CCN(c2ncnc3[nH]nc(Br)c23)CC1` (stereo not shown) [Entry 13, N-[[1-(3-bromo-1H-pyrazolo[3,4-d]pyrimidin-4-yl)piperidin-4-yl](4-chlorophenyl)methyl]-N′-[2-(dimethylamino)ethyl]urea], the IC50 in assay [1] and in assay [3] was < 50 nM throughout.
